Experimental data: ChEMBL document CHEMBL1136642, “Substituted 4-methylquinolines as a new class of anti-tuberculosis agents” (Bioorg Med Chem Lett, 2003)
Values after ≈ are worked out from the molar mass of the structure shown.

Columns and labels:
[1] = tested on: Mycobacterium tuberculosis; experiment: Minimum inhibitory concentration required to inhibit 90% of the inoculum of tuberculosis H37Rv; format: functional
[2] = tested on: Mycobacterium tuberculosis; experiment: In vitro anti-mycobacterial activity against Mycobacterium tuberculosis H37Rv; format: functional; design: concentration or dose not given beside the values
[3] = tested on: Mycobacterium tuberculosis; experiment: Minimum inhibitory concentration against Mycobacterium tuberculosis strain H37Rv, using Alamar assay; format: functional
[4] = tested on: Mycobacterium tuberculosis; experiment: Minimum inhibitory concentration against Mycobacterium tuberculosis strain, CIP-R; format: functional
[5] = tested on: Mycobacterium tuberculosis; experiment: Minimum inhibitory concentration against Mycobacterium tuberculosis strain, EMB-R; format: functional
[6] = tested on: Mycobacterium tuberculosis; experiment: Minimum inhibitory concentration against Mycobacterium tuberculosis strain, Erdman; format: functional
[7] = tested on: Mycobacterium tuberculosis; experiment: Minimum inhibitory concentration against Mycobacterium tuberculosis strain, INH-R; format: functional
[8] = tested on: Mycobacterium tuberculosis; experiment: Minimum inhibitory concentration against Mycobacterium tuberculosis strain, KM-R; format: functional
[9] = tested on: Mycobacterium tuberculosis; experiment: Minimum inhibitory concentration against Mycobacterium tuberculosis strain, RMP-R; format: functional
[10] = tested on: Mycobacterium tuberculosis; experiment: Minimum bactericidal concentration (MBC) against H37Rv; format: functional
[11] = tested on: Mycobacterium tuberculosis; experiment: Minimum bactericidal concentration (MBC) against INH-R; format: functional
[12] = tested on: Mycobacterium tuberculosis; experiment: Minimum bactericidal concentration (MBC) against RMP-R; format: functional
Vero = experiment: In vitro cytotoxicity was determined against VERO cells; format: functional, cell-based; conditions: Chlorocebus sabaeus
[13] = Ratio of minimum bactericidal concentration (MBC) against H37Rv to that of minimum inhibitory concentration (MIC) to H37Rv in Alamar assay(Mycobacterium tuberculosis); format: functional
[14] = Ratio of minimum bactericidal concentration (MBC) against INH-R to that of minimum inhibitory concentration (MIC) to H37Rv in Alamar assay(Mycobacterium tuberculosis); format: functional
[15] = Ratio of minimum bactericidal concentration (MBC) against RMP-R to that of minimum inhibitory concentration (MIC) to H37Rv in Alamar assay(Mycobacterium tuberculosis); format: functional

Structure (SMILES)	MIC [1]	Inhibition [2]	other results
Cc1cc(C2CCCC2)nc2ccccc12	> 6.25 µg/mL	74%	
CCCCCCc1cc(C)c2cccc(CCCCCC)c2n1	> 6.25 µg/mL	23%	
Cc1cc(C2CCCCC2)nc2ccccc12	> 6.25 µg/mL	16%	
CCCCc1cc(C)c2cccc(CCCC)c2n1	6.25 µg/mL (≈ 24.5 µM)	33%	
CCCCCCc1cc(C)c2ccccc2n1	> 6.25 µg/mL	20%	
Cc1cc(C(C)C)nc2c(C(C)C)cccc12	> 6.25 µg/mL	71%	
Cc1cc(C(C)C)nc2ccccc12	> 6.25 µg/mL	57%	
CCCc1cc(C)c2ccccc2n1	> 6.25 µg/mL	30%	
Cc1cc(C23CC4CC(CC(C4)C2)C3)nc2ccccc12	> 69.2 µg/mL	76%	
Cc1cc(C2CCCC2)nc2c(C3CCCC3)cccc12	> 6.25 µg/mL	100%	MIC [3]: 25 µg/mL (≈ 89.5 µM); MIC [4]: 12.5 µg/mL (≈ 44.7 µM); MIC [5]: 12.5 µg/mL (≈ 44.7 µM); MIC [6]: 50 µg/mL (≈ 179 µM); MIC [7]: 12.5 µg/mL (≈ 44.7 µM); MIC [8]: 25 µg/mL (≈ 89.5 µM); MIC [9]: 12.5 µg/mL (≈ 44.7 µM); MBC [10]: 50 µg/mL (≈ 179 µM); MBC [11]: 100 µg/mL (≈ 358 µM); MBC [12]: 200 µg/mL (≈ 716 µM); IC50 (Vero): > 50 µg/mL; Ratio [13]: 2 µg/mL; Ratio [14]: 4 µg/mL; Ratio [15]: 8 µg/mL
Cc1ccnc2ccccc12	> 6.25 µg/mL	0%	
CCCCCc1cc(C)c2ccccc2n1	> 6.25 µg/mL	24%	
Cc1cc(C2CC2)nc2ccccc12	> 6.25 µg/mL	29%	
Cc1cc(C2CCC2)nc2ccccc12	> 6.25 µg/mL	67%	
CCCc1cc(C)c2cccc(CCC)c2n1	> 6.25 µg/mL	36%	
Cc1cc(C2CCCCC2)nc2c(C3CCCCC3)cccc12	> 6.25 µg/mL	53%	
CCCCCc1cc(C)c2cccc(CCCCC)c2n1	> 6.25 µg/mL	29%	
Cc1cc(C2CCC2)nc2c(C3CCC3)cccc12	12.5 µg/mL (≈ 49.7 µM)	100%	
CCCCc1cc(C)c2ccccc2n1	> 6.25 µg/mL	28%	
